Key:
Assay type in all cases: in vivo
[1] = system: barnyardgrass (Echinochloa crus-galli); assay: Test C flooded paddy test: barnyardgrass; settings: scale 0 to 100 (0 no effect, 100 complete control)
Procedure, shortened: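 Plants at 2-leaf stage in pots flooded 3 cm above soil; compounds applied directly into the paddy water, depth maintained. Visual rating against controls after 13–15 days in greenhouse, scale 0 (no effect) to 100 (complete control).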

[2] = system: deadnettle (henbit deadnettle, Lamium amplexicaule); assay: Test D pre-/postemergence: deadnettle
Procedure, shortened: (§1)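 Species were sown in silt loam and sprayed preemergence, or grown in peat/vermiculite medium and sprayed postemergence at the 1- to 4-leaf stage (2–18 cm), with compounds in a surfactant-containing solvent. Injury was visually rated against untreated controls after 14–21 days, on a 0 (no effect) to 100 (complete control) scale.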

[3] = system: Russian thistle (Salsola iberica); assay: Test D pre-/postemergence: Russian thistle
Text: (§2) Seeds of plant species selected from bluegrass (annual bluegrass, Poa annua), blackgrass (Alopecurus myosuroides), canarygrass (Phalaris minor), chickweed (common chickweed, Stellaria media), galium (catchweed bedstraw, Galium aparine), bromegrass, downy (downy bromegrass, Bromus tectorum), field poppy (Papaver rhoeas), field violet (Viola arvensis), foxtail, green (green foxtail, Setaria viridis), deadnettle (henbit deadnettle, Lamium amplexicaule), ryegrass, Italian (Italian ryegrass, Lolium multiflorum), kochia (Kochia scoparia), lambsquarters (Chenopodium album), oilseed rape (Brassica napus), pigweed (Amaranthus retroflexus), Russian thistle (Salsola iberica), chamomile (scentless chamomile, Matricaria inodora), speedwell (bird's-eye speedwell, Veronica persica), barley, spring (spring barley, Hordeum vulgare), wheat, spring (spring wheat, Triticum aestivum), buckwheat, wild (wild buckwheat, Polygonum convolvulus), mustard, wild (wild mustard, Sinapis arvensis), oat, wild (wild oat, Avena fatua), radish, wild (wild radish, Raphanus raphanistrum), windgrass (Apera spica-venti), barley, winter (winter barley, Hordeum vulgare), and wheat, winter (winter wheat, Triticum aestivum) were planted into a silt loam soil and treated preemergence with test chemicals formulated in a non-phytotoxic solvent mixture which included a surfactant. At the same time, these same crop and weed species were planted in pots containing the planting medium comprising spaghnum peat moss, vermiculite, wetting agent and starter nutrients and treated with postemergence applications of the test chemicals formulated in the same manner. Plants ranged in height from 2 to 18 cm (1- to 4-leaf stage).
(§3) Treated plants and controls were maintained in a controlled growth environment for 14 to 21 days after which time all species were compared to controls and visually evaluated. Plant response ratings, summarized in Table D, are based on a scale of 0 to 100 where 0 is no effect and 100 is complete control. A dash (-) response means no test result.

[4] = system: oat, wild (wild oat, Avena fatua); assay: Test D pre-/postemergence: oat, wild
Text: as §2, §3

[5] = system: windgrass (Apera spica-venti); assay: Test D pre-/postemergence: windgrass
Procedure, shortened: as §1

[6] = Flood (flooded paddy test), 125 g ai/ha, visual rating after 13 to 15 days
[7] = Flood (flooded paddy test), 250 g ai/ha, visual rating after 13 to 15 days
[8] = Postemergence, 31 g ai/ha, scale 0 to 100 (0 no effect, 100 complete control)
[9] = Postemergence, 62 g ai/ha, scale 0 to 100 (0 no effect, 100 complete control)
[10] = Postemergence, 125 g ai/ha, scale 0 to 100, 0 no effect, 100 complete control
[11] = Postemergence, 250 g ai/ha, scale 0 to 100 (0 no effect, 100 complete control)
[12] = Postemergence, 16 g ai/ha, scale 0 to 100
[13] = Preemergence, 31 g ai/ha, scale 0 to 100, 0 no effect, 100 complete control
[14] = Preemergence, 62 g ai/ha, scale 0 to 100
[15] = Preemergence, 125 g ai/ha, scale 0 to 100
[16] = Preemergence, 250 g ai/ha, scale 0 to 100

Cc1nn(-c2ccc(C(F)(F)F)cn2)nc1Oc1ccnc(C(F)(F)F)c1 [Compound 23]
Plant response rating, Barnyardgrass ([1]; Flood (flooded paddy test), 62 g ai/ha, visual rating after 13 to 15 days): 0 | Plant response rating, Barnyardgrass [1, 6]: 20 | Plant response rating, Barnyardgrass [1, 7]: 25 | Plant response rating, Barnyardgrass ([1]; Flood, 31 g ai/ha): 0 | Plant response rating: Deadnettle [2, 8]: 30 | Plant response rating: Deadnettle [2, 9]: 50 | Plant response rating: Deadnettle [2, 10]: 60 | Plant response rating: Deadnettle [2, 11]: 90 | Plant response rating, Deadnettle [2, 12]: 20 | Plant response rating: Russian Thistle [3, 8]: 50 | Plant response rating: Russian Thistle [3, 9]: 70 | Plant response rating: Russian Thistle [3, 10]: 90 | Plant response rating: Russian Thistle [3, 11]: 100 | Plant response rating, Russian Thistle [3, 12]: 50 | Plant response rating: Oat, Wild [4, 8]: 10 | Plant response rating: Oat, Wild [4, 9]: 10 | Plant response rating: Oat, Wild [4, 10]: 15 | Plant response rating: Oat, Wild [4, 11]: 20 | Plant response rating, Oat, Wild [4, 12]: 10 | Plant response rating: Windgrass [5, 8]: 5 | Plant response rating: Windgrass [5, 9]: 10 | Plant response rating: Windgrass [5, 10]: 20 | Plant response rating: Windgrass [5, 11]: 30 | Plant response rating, Windgrass [5, 12]: 0

Cc1nn(-c2ccc(C(F)(F)F)cn2)nc1Cc1cccc(C(F)(F)F)c1 [Compound 106]
Plant response rating, Barnyardgrass [1, 6]: 20 | Plant response rating, Barnyardgrass [1, 7]: 40 | Plant response rating, Barnyardgrass ([1]; Flood, 31 g ai/ha): 0 | Plant response rating, Barnyardgrass ([1]; Flood, 62 g ai/ha): 0 | Plant response rating: Deadnettle [2, 8]: 30 | Plant response rating: Deadnettle [2, 9]: 40 | Plant response rating: Deadnettle [2, 10]: 60 | Plant response rating: Deadnettle [2, 11]: 80 | Plant response rating, Deadnettle [2, 12]: 20 | Plant response rating, Deadnettle [2, 13]: 0 | Plant response rating, Deadnettle [2, 14]: 0 | Plant response rating, Deadnettle [2, 15]: 0 | Plant response rating, Deadnettle [2, 16]: 0 | Plant response rating: Russian Thistle [3, 8]: 25 | Plant response rating: Russian Thistle [3, 9]: 30 | Plant response rating: Russian Thistle [3, 10]: 60 | Plant response rating: Russian Thistle [3, 11]: 100 | Plant response rating, Russian Thistle [3, 12]: 20 | Plant response rating, Russian Thistle [3, 13]: 0 | Plant response rating, Russian Thistle [3, 14]: 0 | Plant response rating, Russian Thistle [3, 15]: 0 | Plant response rating, Russian Thistle [3, 16]: 0 | Plant response rating: Oat, Wild [4, 8]: 5 | Plant response rating: Oat, Wild [4, 9]: 5 | Plant response rating: Oat, Wild [4, 10]: 5 | Plant response rating: Oat, Wild [4, 11]: 20 | Plant response rating, Oat, Wild [4, 12]: 0 | Plant response rating, Oat, Wild [4, 13]: 0 | Plant response rating, Oat, Wild [4, 14]: 0 | Plant response rating, Oat, Wild [4, 15]: 10 | Plant response rating, Oat, Wild [4, 16]: 10 | Plant response rating: Windgrass [5, 8]: 10 | Plant response rating: Windgrass [5, 9]: 25 | Plant response rating: Windgrass [5, 10]: 35 | Plant response rating: Windgrass [5, 11]: 50 | Plant response rating, Windgrass [5, 12]: 5 | Plant response rating, Windgrass [5, 13]: 5 | Plant response rating, Windgrass [5, 14]: 5 | Plant response rating, Windgrass [5, 15]: 25 | Plant response rating, Windgrass [5, 16]: 80

From patent publication US9302999B2, “Substituted triazoles as herbicides” (E. I. DU PONT DE NEMOURS AND COMPANY, priority 2012, dated 2016)
